From patent publication US8420852B2, “Phospholipase A2 inhibitors and their use in treating neurological injury and disease” (The Regents of the University of California, priority 2007, dated 2013) come the findings set out here.

“Also recorded” adds a separate entry of the source.

The target in test [1] is T1, iPLA2 (GVIA) (Homo sapiens, UniProt O60733).
T1 sequence (O60733 1-806): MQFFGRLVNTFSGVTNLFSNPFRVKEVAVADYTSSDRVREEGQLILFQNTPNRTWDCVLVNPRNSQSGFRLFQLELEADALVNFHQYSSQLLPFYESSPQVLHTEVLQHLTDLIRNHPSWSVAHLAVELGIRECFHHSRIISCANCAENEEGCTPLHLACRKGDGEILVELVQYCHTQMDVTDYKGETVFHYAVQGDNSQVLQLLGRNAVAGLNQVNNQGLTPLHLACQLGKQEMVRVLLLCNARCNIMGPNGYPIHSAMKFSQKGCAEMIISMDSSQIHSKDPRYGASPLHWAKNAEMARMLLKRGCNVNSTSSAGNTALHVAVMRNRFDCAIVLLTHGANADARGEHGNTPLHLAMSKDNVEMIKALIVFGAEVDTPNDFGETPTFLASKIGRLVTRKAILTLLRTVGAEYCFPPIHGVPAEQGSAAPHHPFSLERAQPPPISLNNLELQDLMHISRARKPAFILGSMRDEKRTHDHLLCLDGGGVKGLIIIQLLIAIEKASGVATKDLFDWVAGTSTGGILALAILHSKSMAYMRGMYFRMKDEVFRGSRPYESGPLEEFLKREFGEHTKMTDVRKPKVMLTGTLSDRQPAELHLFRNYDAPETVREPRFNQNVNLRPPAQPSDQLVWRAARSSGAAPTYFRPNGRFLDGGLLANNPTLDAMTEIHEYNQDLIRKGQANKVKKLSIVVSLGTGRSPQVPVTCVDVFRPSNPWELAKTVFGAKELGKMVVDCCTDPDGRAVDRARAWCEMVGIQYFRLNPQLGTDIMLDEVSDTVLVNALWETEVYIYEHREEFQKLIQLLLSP
Description: standard iPLA2 (GVIA) activity assay, DPPC/Triton X-100 mixed micelles. It counts as biochemical. Conditions: at 0.091 mol fraction. Here is the method: The compounds described herein were tested for inhibition of PLA2s in in vitro assay systems. The data, summarized in the Examples, are represented as XI(50) values unless otherwise noted. XI(50) is defined as the inhibitor concentration that produced 50% inhibition. XI(50) is used as opposed to the more common IC50 because GIVA and GVIA PLA2 are active at a two-dimensional lipid interface rather than in three-dimensional solution. (Deems, Anal. Biochem., 287:1-16, 2000).
For the groups that received delayed treatment after symptoms occurred, mice were treated with daily intraperitoneal injections of AX059 starting from the first day of clinical symptoms, beginning on day 11; and AX115 starting from the first day of clinical peak (i.e., score 4), beginning of day 14. All inhibitors were administered for 2 weeks. The selectivity of the compounds for the different PLA2s is shown as the percentage inhibition in Table 1. The XI(50) is the mole fraction of the inhibitor in the total substrate interface required to inhibit the enzyme by 50%.
Compound AX115 was tested for its ability to inhibit human cPLA2 (GIVA) in a cPLA2 (GIVA) specific assay that uses mixed micelles of the substrate 1-palmitoyl-2-arachidonyl phosphatidylcholine and the detergent Triton X-100 (97:3) containing phosphatidylinositol 4,5-bisphosphate (400 μM) as previously described. […]

The subject of test [2] is BALB/c mice with spinal cord contusion. Nature of the test: spinal cord contusion (SCI) model, locomotor recovery and histology. Format: in vivo, mouse.
For test [3], the system named is chemokine and cytokine protein expression in spinal cord. Nature of the test: mouse inflammation antibody array of spinal cords of EAE mice. It counts as in vivo. Conditions: treatment from day 5, tissue day 18. The method, then:
Spinal cords were removed from vehicle and inhibitor treated animals when the vehicle-treated mice reached the peak of disease (score of 4). The tissues were then homogenized in lysis buffer and centrifuged at 1000×g. These protein samples were then assessed using the Raybio® inflammatory antibody array from RayBiotech Inc (Norcross, Ga.). Briefly, blocking buffer was added to glass-chip slides, which are coated with antibodies against chemokine, cytokine and related proteins. The slides were then incubated with the various protein samples from the treatment and control groups. After washing the glass slides, they were incubated sequentially with a biotin conjugated secondary antibody solution, horseradish peroxidase (HRP)-conjugated strepavidin, and HRP detection buffer. The signals were then visualized by chemiluminescence. Densitometric analysis was performed to detect differences between the various samples using ImageQuant 5.1 software (Molecular Dynamics). Positive control signals were used to normalize the level of expression from different glass slides being compared. Experiments were repeated with 3 different samples (n=3), and all the detection and analysis was done blind.
The results of this group of experiments are shown with the reference to FIGS. 15 and 16. FIG. 15 provides graphs showing the level of protein expression of chemokines in spinal cords of naive mice and EAE mice treated with PLA2 inhibitors starting on day 5. Tissues were taken on day 18, when the vehicle treated animals reached the peak of the first clinical attack. The data are shown for inhibitors AX059 (FIG. 15a) and AX115 (FIG. 15b). Data represent means±SEM from 3 animals in each group. In the figures, * represents a significant decrease, while ** represents a significant increase as compared to vehicle treated EAE controls.
FIG. 16 provides graphs showing the level of protein expression of cytokines in spinal cords of naive mice and EAE treated mice treated with PLA2 inhibitors starting on day 5. Tissues were taken on day 18, when the vehicle treated animals reached the peak of the first clinical attack. The data are shown for inhibitors AX059 (FIG. 16a) and AX115 (FIG. 16b). Data represent means±SEM from 3 animals in each group. In the figures, * represents a significant decrease, while ** represents a significant increase as compared to vehicle treated EAE controls.
Changes were assessed in protein expression of 40 chemokines and cytokines, their receptors and related molecules, using a mouse antibody array (RayBiotech Inc.). The analysis was carried out on spinal cords from mice treated with inhibitors starting from day 5 post-immunization. Tissue was taken on day 18 when the control vehicle-treated mice reached the peak of the first clinical attack. 12 chemokines were increased in vehicle-treated mice (FIG. 15), most of which are known to play a role in EAE, except for LIX (CXCL5) and TECK (CCL25), whose functions in CNS autoimmune disease remain unclear. […] In contrast, the pan-inhibitor AX115, which inhibits sPLA2 greater than AX059 reduced the expression of 7 of the 12 chemokines (FIG. 15b). Importantly, it increased the expression of eotaxin-2 (1.8-fold), RANTES (9.6-fold) and MIP-1 γ (9.7-fold) […], which can also regulate the allergic arm of the immune response.

`CCCCCCCCCCCCCCC(=O)C(=O)NCC(=O)OC` [AX115]: the “Inhibition iPLA2GIVA” value in test [1] was 45%. The “neuron survival in ventral horn (cresyl violet)” value in test [2] (300 to 1000 μm rostral and caudal to lesion epicenter, 28 dpi, vs vehicle) is “significantly greater neuron survival; also recorded: significantly better survival of ventral horn neurons; also recorded: greater number of neuronal profiles”. For the same compound, the serotonergic innervation entry in test [2] (1000 μm caudal to lesion epicenter, 28 dpi, vs vehicle) was “significantly greater serotonergic innervation; also recorded: marked increase of serotonergic fibers”. For the same compound, in test [2] (28 days after SCI, vehicle 4.6, 9-point scale), the BMS score is reported as 6.6. The “locomotor function (BMS scores) vs vehicle treated injured mice” value in test [2] (daily i.p. 6.85 mg/kg from 1 h after contusion for 14 days, significant from 5 dpi, 6.85 mg/kg) is given as “marked improvement in the BMS scores; also recorded: markedly improved locomotor function”. In test [2] (epicenter and 300 μm rostral and caudal, 28 dpi, vs vehicle), the “myelin loss (Luxol fast blue)” value is listed as “marked reduction of myelin loss”. The “tissue sparing (GFAP staining)” value in test [2] (lesion epicenter and adjacent regions, 28 dpi, vs vehicle) is recorded as “significant amount of tissue sparing; also recorded: significant tissue protection; also recorded: marked reduction in tissue loss”. Moreover, in test [2] (vs vehicle), the “improvement in BMS subscores (fine locomotor control)” value was 4 points; the “increase in the density of 5-HT fibers within the lateral funiculi and ventral horns” value was found to be 3 fold. Further, the “number of chemokines reduced” value in test [3] (of the 12 chemokines increased in vehicle-treated EAE mice) was 7. Also, the “number of cytokines reduced” value in test [3] (of the 13 cytokines increased in vehicle-treated EAE mice) is recorded as 9. Moreover, in test [3] (spinal cord), the “increase in expression of IL-10” value was “failed to increase IL-10”, the “increase in expression of MIP-1 γ” value is 9.7 fold, the “increase in expression of RANTES” value turned out to be 9.6 fold and the “increase in expression of eotaxin-2” value is given as 1.8 fold. Besides, the “increase in soluble TNF receptor 1 (sTNFR1)” value in test [3] (spinal cord) is about 4 fold.
